From US20250353891A1 (MEDIMMUNE LIMITED, priority 2022, published 2025)
Starred links: 1 amine or outer side, 2 acyl side, 3 side chain; linkers in the order of their positions; H or OH if unused. Non-standard residues stand in square brackets, D forms with d. Residues, ends and D or L forms follow the SMILES beside them. Groups on a side chain read outwards from the residue. *: point of attachment. C20 diacid = O=C(O)CCCCCCCCCCCCCCCCCCC(=O)*; C18 diacid = O=C(O)CCCCCCCCCCCCCCCCC(=O)*; γGlu = O=C(O)[C@H](CCC(=O)[*:2])N[*:1]; αMeF = C[C@](N)(Cc1ccccc1)C(=O)O; AEEA = NCCOCCOCC(=O)O; Aib = CC(C)(N)C(=O)O

Key:
[1] = biological target: human GLP-1 receptor (hGLP-1R) (Homo sapiens, UniProt P43220); assay: cAMP production (HTRF) in CHO cells expressing hGLP-1R; assay type: cell-based; set-up: expressed in transfected cells; conditions: for EC50: Table 6, peptides modified at position 17, cAMP in CHO hGLP-1R cells, geometric mean, read-out: hGLP-1R EC50; for % Relative Potency Ratio: Table 6, % GLP-1R activity relative to GLP-1 / % GlucR activity relative to glucagon
Chain of human GLP-1 receptor (hGLP-1R) (P43220 24-463): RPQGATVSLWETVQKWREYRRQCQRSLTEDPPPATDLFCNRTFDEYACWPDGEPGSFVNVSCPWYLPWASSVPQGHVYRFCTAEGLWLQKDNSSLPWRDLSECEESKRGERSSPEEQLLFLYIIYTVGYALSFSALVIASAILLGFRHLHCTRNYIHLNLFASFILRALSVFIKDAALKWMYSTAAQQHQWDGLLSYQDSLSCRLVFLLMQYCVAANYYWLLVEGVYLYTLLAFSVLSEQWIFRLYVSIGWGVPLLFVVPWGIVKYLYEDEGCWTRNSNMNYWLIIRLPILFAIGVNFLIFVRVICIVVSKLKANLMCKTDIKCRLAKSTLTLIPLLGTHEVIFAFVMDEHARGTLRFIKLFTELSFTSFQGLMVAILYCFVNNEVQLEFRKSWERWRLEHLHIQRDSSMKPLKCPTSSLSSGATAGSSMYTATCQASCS
How it was run: (§1)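 Cells were resuspended in assay buffer at batch-optimized density, typically 1×10^5 cells/mL for hGLP-1R and 2×10^5 cells/mL for hGCGR. After 30 min incubation at room temperature with compound, cAMP was measured by two-step HTRF. EC50 values came from 4-parameter logistic fits of % Delta F.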

[2] = biological target: human glucagon receptor (hGCGR) (Homo sapiens, UniProt P47871); assay: cAMP production (HTRF) in CHO cells expressing hGCGR; assay type: cell-based; set-up: expressed in transfected cells; conditions: Table 6, peptides modified at position 17; cAMP in CHO hGCGR cells; geometric mean; read-out: hGluc-R EC50
Chain of human glucagon receptor (hGCGR) (P47871 26-477): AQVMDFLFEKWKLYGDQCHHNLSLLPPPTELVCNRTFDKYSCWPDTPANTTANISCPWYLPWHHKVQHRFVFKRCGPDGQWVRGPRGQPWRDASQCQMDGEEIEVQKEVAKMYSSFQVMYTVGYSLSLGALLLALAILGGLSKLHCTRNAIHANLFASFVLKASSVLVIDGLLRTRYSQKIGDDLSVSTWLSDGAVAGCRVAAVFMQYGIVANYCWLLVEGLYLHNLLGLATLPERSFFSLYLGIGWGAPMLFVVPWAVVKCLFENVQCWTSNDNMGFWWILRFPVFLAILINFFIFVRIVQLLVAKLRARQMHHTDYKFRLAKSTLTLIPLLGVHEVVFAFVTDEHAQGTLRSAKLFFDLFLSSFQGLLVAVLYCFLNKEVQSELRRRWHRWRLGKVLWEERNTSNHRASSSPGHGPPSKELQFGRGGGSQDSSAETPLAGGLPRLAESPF
How it was run: as §1

| EC50 [1] [pM] | % Relative Potency Ratio [1] | EC50 [2] [pM] | Structure (SMILES) |
| --- | --- | --- | --- |
| 26.9 | 7.1 | 96.9 | CC(C)C[C@H](NC(=O)[C@H](Cc1c[nH]c2ccccc12)NC(=O)[C@H](CCCNC(=N)N)NC(=O)[C@@H](NC(=O)[C@H](Cc1ccccc1)NC(=O)[C@H](CC(=O)O)NC(=O)[C@H](CCC(N)=O)NC(=O)[C@H](C)NC(=O)[C@H](CCCNC(=N)N)NC(=O)[C@H](CCCCNC(=O)COCCOCCNC(=O)COCCOCCNC(=O)CC[C@H](NC(=O)CCCCCCCCCCCCCCCCCCC(=O)O)C(=O)O)NC(=O)[C@H](CCCNC(=N)N)NC(=O)[C@H](CC(=O)O)NC(=O)[C@H](CC(C)C)NC(=O)[C@](C)(Cc1ccccc1)NC(=O)[C@H](CCCCN)NC(=O)[C@H](CO)NC(=O)[C@@H](NC(=O)[C@H](CC(=O)O)NC(=O)[C@H](CO)NC(=O)[C@@H](NC(=O)[C@H](Cc1ccccc1)NC(=O)[C@@H](NC(=O)CNC(=O)[C@H](CCC(N)=O)NC(=O)C(C)(C)NC(=O)[C@@H](N)Cc1c[nH]cn1)[C@@H](C)O)[C@@H](C)O)C(C)C)C(C)C)C(=O)N[C@H](C(=O)NC(C)(C)C(=O)N[C@@H](CCC(=O)O)C(N)=O)C(C)C [Peptide 437] (H-H[Aib]QGTFTSDVSK[αMeF]LDRK([AEEA-AEEA-γGlu-C20 diacid])RAQDFVRWLV[Aib]E-NH2) |
| 17.9 | 7.6 | 68.9 | CC(C)C[C@H](NC(=O)[C@H](Cc1c[nH]c2ccccc12)NC(=O)[C@H](CCCNC(=N)N)NC(=O)[C@@H](NC(=O)[C@H](Cc1ccccc1)NC(=O)[C@H](CC(=O)O)NC(=O)[C@H](CCC(N)=O)NC(=O)[C@H](C)NC(=O)[C@H](CCCNC(=N)N)NC(=O)[C@H](CCCCNC(=O)COCCOCCNC(=O)COCCOCCNC(=O)CC[C@H](NC(=O)CCCCCCCCCCCCCCCCC(=O)O)C(=O)O)NC(=O)[C@H](CCCCN)NC(=O)[C@H](CC(=O)O)NC(=O)[C@H](CC(C)C)NC(=O)[C@](C)(Cc1ccccc1)NC(=O)[C@H](CCCCN)NC(=O)[C@H](CO)NC(=O)[C@@H](NC(=O)[C@H](CC(=O)O)NC(=O)[C@H](CO)NC(=O)[C@@H](NC(=O)[C@H](Cc1ccccc1)NC(=O)[C@@H](NC(=O)CNC(=O)[C@H](CCC(N)=O)NC(=O)C(C)(C)NC(=O)[C@@H](N)Cc1c[nH]cn1)[C@@H](C)O)[C@@H](C)O)C(C)C)C(C)C)C(=O)N[C@@H](CCC(=O)O)C(=O)N[C@@H](C)C(=O)NC(C)(C)C(=O)NCC(N)=O [Peptide 438] (H-H[Aib]QGTFTSDVSK[αMeF]LDKK([AEEA-AEEA-γGlu-C18 diacid])RAQDFVRWLEA[Aib]G-NH2; N-terminus assumed) |
| 30.6 | 3.7 | 57.7 | CC(C)C[C@H](NC(=O)[C@H](Cc1c[nH]c2ccccc12)NC(=O)[C@H](CCCNC(=N)N)NC(=O)[C@@H](NC(=O)[C@H](Cc1ccccc1)NC(=O)[C@H](CC(=O)O)NC(=O)[C@H](CCC(N)=O)NC(=O)[C@H](C)NC(=O)[C@H](CCCNC(=N)N)NC(=O)[C@H](CCCCNC(=O)COCCOCCNC(=O)COCCOCCNC(=O)CC[C@H](NC(=O)CCCCCCCCCCCCCCCCC(=O)O)C(=O)O)NC(=O)[C@H](CCCNC(=N)N)NC(=O)[C@H](CC(=O)O)NC(=O)[C@H](CC(C)C)NC(=O)[C@](C)(Cc1ccccc1)NC(=O)[C@H](CCCCN)NC(=O)[C@H](CO)NC(=O)[C@@H](NC(=O)[C@H](CC(=O)O)NC(=O)[C@H](CO)NC(=O)[C@@H](NC(=O)[C@H](Cc1ccccc1)NC(=O)[C@@H](NC(=O)CNC(=O)[C@H](CCC(N)=O)NC(=O)C(C)(C)NC(=O)[C@@H](N)Cc1c[nH]cn1)[C@@H](C)O)[C@@H](C)O)C(C)C)C(C)C)C(=O)N[C@@H](CC(C)C)C(=O)NC(C)(C)C(=O)N[C@@H](CCC(=O)O)C(N)=O [Peptide 439] (H-H[Aib]QGTFTSDVSK[αMeF]LDRK([AEEA-AEEA-γGlu-C18 diacid])RAQDFVRWLL[Aib]E-NH2; N-terminus assumed) |
| 154 | 1.0 | 81 | CC(C)C[C@H](NC(=O)[C@H](Cc1c[nH]c2ccccc12)NC(=O)[C@H](CCCNC(=N)N)NC(=O)[C@@H](NC(=O)[C@H](Cc1ccccc1)NC(=O)[C@H](CC(=O)O)NC(=O)[C@H](CCCNC(=N)N)NC(=O)[C@H](C)NC(=O)[C@H](CCCNC(=N)N)NC(=O)[C@H](CCCCNC(=O)COCCOCCNC(=O)COCCOCCNC(=O)CC[C@H](NC(=O)CCCCCCCCCCCCCCCCCCC(=O)O)C(=O)O)NC(=O)[C@H](CCCCN)NC(=O)[C@H](CC(=O)O)NC(=O)[C@H](CC(C)C)NC(=O)[C@](C)(Cc1ccccc1)NC(=O)[C@H](CCCCN)NC(=O)[C@H](CO)NC(=O)[C@@H](NC(=O)[C@H](CC(=O)O)NC(=O)[C@H](CO)NC(=O)[C@@H](NC(=O)[C@H](Cc1ccccc1)NC(=O)[C@@H](NC(=O)CNC(=O)[C@H](CCC(N)=O)NC(=O)C(C)(C)NC(=O)[C@@H](N)Cc1c[nH]cn1)[C@@H](C)O)[C@@H](C)O)C(C)C)C(C)C)C(=O)N[C@@H](CC(C)C)C(=O)NC(C)(C)C(=O)N[C@@H](CCC(=O)O)C(=O)O [Peptide 440] (H-H[Aib]QGTFTSDVSK[αMeF]LDKK([AEEA-AEEA-γGlu-C20 diacid])RARDFVRWLL[Aib]E-OH; N-terminus assumed) |
| 62.7 | 2.3 | 72.8 | CC(C)C[C@H](NC(=O)[C@H](Cc1c[nH]c2ccccc12)NC(=O)[C@H](CCCNC(=N)N)NC(=O)[C@@H](NC(=O)[C@H](Cc1ccccc1)NC(=O)[C@H](CC(=O)O)NC(=O)[C@H](CCC(N)=O)NC(=O)[C@H](C)NC(=O)[C@H](CCCNC(=N)N)NC(=O)[C@H](CCCCNC(=O)COCCOCCNC(=O)COCCOCCNC(=O)CC[C@H](NC(=O)CCCCCCCCCCCCCCCCCCC(=O)O)C(=O)O)NC(=O)[C@H](CCCCN)NC(=O)[C@H](CC(=O)O)NC(=O)[C@H](CC(C)C)NC(=O)[C@](C)(Cc1ccccc1)NC(=O)[C@H](CCCCN)NC(=O)[C@H](CO)NC(=O)[C@@H](NC(=O)[C@H](CC(=O)O)NC(=O)[C@H](CO)NC(=O)[C@@H](NC(=O)[C@H](Cc1ccccc1)NC(=O)[C@@H](NC(=O)CNC(=O)[C@H](CCC(N)=O)NC(=O)C(C)(C)NC(=O)[C@@H](N)Cc1c[nH]cn1)[C@@H](C)O)[C@@H](C)O)C(C)C)C(C)C)C(=O)N[C@@H](CC(C)C)C(=O)NC(C)(C)C(=O)N[C@@H](CCC(=O)O)C(N)=O [Peptide 441] (H-H[Aib]QGTFTSDVSK[αMeF]LDKK([AEEA-AEEA-γGlu-C20 diacid])RAQDFVRWLL[Aib]E-NH2; N-terminus assumed) |
| 19.1 | 3.7 | 35.8 | CC(C)C[C@H](NC(=O)[C@H](Cc1c[nH]c2ccccc12)NC(=O)[C@H](CCCNC(=N)N)NC(=O)[C@@H](NC(=O)[C@H](Cc1ccccc1)NC(=O)[C@H](CC(=O)O)NC(=O)[C@H](CCC(N)=O)NC(=O)[C@H](C)NC(=O)[C@H](CCCNC(=N)N)NC(=O)[C@H](CCCCNC(=O)COCCOCCNC(=O)COCCOCCNC(=O)CC[C@H](NC(=O)CCCCCCCCCCCCCCCCC(=O)O)C(=O)O)NC(=O)[C@H](CCCCN)NC(=O)[C@H](CC(=O)O)NC(=O)[C@H](CC(C)C)NC(=O)[C@](C)(Cc1ccccc1)NC(=O)[C@H](CCCCN)NC(=O)[C@H](CO)NC(=O)[C@@H](NC(=O)[C@H](CC(=O)O)NC(=O)[C@H](CO)NC(=O)[C@@H](NC(=O)[C@H](Cc1ccccc1)NC(=O)[C@@H](NC(=O)CNC(=O)[C@H](CCC(N)=O)NC(=O)C(C)(C)NC(=O)[C@@H](N)Cc1c[nH]cn1)[C@@H](C)O)[C@@H](C)O)C(C)C)C(C)C)C(=O)N[C@@H](CC(C)C)C(=O)N[C@@H](CCC(=O)O)C(=O)NC(C)(C)C(=O)NCC(N)=O [Peptide 442] (H-H[Aib]QGTFTSDVSK[αMeF]LDKK([AEEA-AEEA-γGlu-C18 diacid])RAQDFVRWLLE[Aib]G-NH2; N-terminus assumed) |
| 20.6 | 2.2 | 22.4 | CC(C)C[C@H](NC(=O)[C@H](Cc1c[nH]c2ccccc12)NC(=O)[C@H](CCCNC(=N)N)NC(=O)[C@@H](NC(=O)[C@H](Cc1ccccc1)NC(=O)[C@H](CC(=O)O)NC(=O)[C@H](CCCNC(=N)N)NC(=O)[C@H](C)NC(=O)[C@H](CCCNC(=N)N)NC(=O)[C@H](CCCCNC(=O)COCCOCCNC(=O)COCCOCCNC(=O)CC[C@H](NC(=O)CCCCCCCCCCCCCCCCC(=O)O)C(=O)O)NC(=O)[C@H](CCCCN)NC(=O)[C@H](CC(=O)O)NC(=O)[C@H](CC(C)C)NC(=O)[C@](C)(Cc1ccccc1)NC(=O)[C@H](CCCCN)NC(=O)[C@H](CO)NC(=O)[C@@H](NC(=O)[C@H](CC(=O)O)NC(=O)[C@H](CO)NC(=O)[C@@H](NC(=O)[C@H](Cc1ccccc1)NC(=O)[C@@H](NC(=O)CNC(=O)[C@H](CCC(N)=O)NC(=O)C(C)(C)NC(=O)[C@@H](N)Cc1c[nH]cn1)[C@@H](C)O)[C@@H](C)O)C(C)C)C(C)C)C(=O)N[C@@H](CC(C)C)C(=O)NC(C)(C)C(=O)N[C@@H](CCC(=O)O)C(N)=O [Peptide 443] (H-H[Aib]QGTFTSDVSK[αMeF]LDKK([AEEA-AEEA-γGlu-C18 diacid])RARDFVRWLL[Aib]E-NH2; N-terminus assumed) |
